Patent publication US20220175818A1, “Inhibition of Monoamine Oxidase Subtype A (MAOA) Mitigates Cardiovascular Calcification” (The Brigham and Women's Hospital, Inc., priority 2019, published 2022)

Tested on: VICs
Assay: Alizarin red calcification assay of VICs grown in osteogenic media with MAOA inhibitors
Assay type: cell-based, human
Details: VICs grown in OM, 21 days, inhibitor 10 μM, PBS control, n=3, FIG. 7E
Experimental: Representative images, n=3 donors.
Osteogenic, chondrogenic, and adipogenic differentiation assays were conducted for samples of protein, RNA, and media collected at 0, 1, 2, and 3 weeks after changing media from growth media to specialized media. Alizarin Red. alizarin red (AR) 2% (Thermo Fisher Scientific), Alcian blue (AB) 1%, and oil red O (ORO) (Abcam) were used for osteogenic, chondrogenic, and adipogenic assays respectively. Cells plated in 48 or 96 well plates were washed with PBS and fixed for 15 minutes at room temperature with 10% formalin for AR and AB and 4% PFA for ORO. After washing with Milli-Q water, stains were added. […] The incubation times were 20 minutes (AR), 1 hour (AB), and 15 minutes in room temperature (ORO). Washes with Milli-Q water followed for the AR (3×) and AB (4×) stains. […] Pictures were taken using an iPhone7 (Apple) and the amount of dye released was quantified by spectrophotometry at 550 nm.

Row | SMILES | calcification (Alizarin red staining)
1 | O=C(NCCN1CCOCC1)c1ccc(Cl)cc1 [moclobemide, Moclobemide] | reduction of calcification
2 | Cc1ccc2c(c1)c1c3n2CCNC3CCC1 (centres unmarked) [pirindole] | reduction of calcification
